# In US10669269B2, “Substituted N-(1H-indazol-4-yl)imidazo[1,2-a]pyridine-3-carboxamide compounds as type III receptor tyrosine kinase inhibitors” (ARRAY BIOPHARMA INC., priority 2010, dated 2020):
# pIC50: −log10 of the molar value.
# Tests used:
# [1] = target: T1, PDGFR beta (Homo sapiens, UniProt P09619); test: Phospho PDGFR LICOR Cell Assay (Example B); type: cell-based; conditions: averaged IC50; PDGFR beta phosphorylation in HS27 human fibroblast cell line, PDGF-BB stimulation 10 minutes, normalized to total ERK
# T1 construct: endogenous in cells; host or cells: HS27 human fibroblast cell line
# T1 sequence (P09619 33-1106): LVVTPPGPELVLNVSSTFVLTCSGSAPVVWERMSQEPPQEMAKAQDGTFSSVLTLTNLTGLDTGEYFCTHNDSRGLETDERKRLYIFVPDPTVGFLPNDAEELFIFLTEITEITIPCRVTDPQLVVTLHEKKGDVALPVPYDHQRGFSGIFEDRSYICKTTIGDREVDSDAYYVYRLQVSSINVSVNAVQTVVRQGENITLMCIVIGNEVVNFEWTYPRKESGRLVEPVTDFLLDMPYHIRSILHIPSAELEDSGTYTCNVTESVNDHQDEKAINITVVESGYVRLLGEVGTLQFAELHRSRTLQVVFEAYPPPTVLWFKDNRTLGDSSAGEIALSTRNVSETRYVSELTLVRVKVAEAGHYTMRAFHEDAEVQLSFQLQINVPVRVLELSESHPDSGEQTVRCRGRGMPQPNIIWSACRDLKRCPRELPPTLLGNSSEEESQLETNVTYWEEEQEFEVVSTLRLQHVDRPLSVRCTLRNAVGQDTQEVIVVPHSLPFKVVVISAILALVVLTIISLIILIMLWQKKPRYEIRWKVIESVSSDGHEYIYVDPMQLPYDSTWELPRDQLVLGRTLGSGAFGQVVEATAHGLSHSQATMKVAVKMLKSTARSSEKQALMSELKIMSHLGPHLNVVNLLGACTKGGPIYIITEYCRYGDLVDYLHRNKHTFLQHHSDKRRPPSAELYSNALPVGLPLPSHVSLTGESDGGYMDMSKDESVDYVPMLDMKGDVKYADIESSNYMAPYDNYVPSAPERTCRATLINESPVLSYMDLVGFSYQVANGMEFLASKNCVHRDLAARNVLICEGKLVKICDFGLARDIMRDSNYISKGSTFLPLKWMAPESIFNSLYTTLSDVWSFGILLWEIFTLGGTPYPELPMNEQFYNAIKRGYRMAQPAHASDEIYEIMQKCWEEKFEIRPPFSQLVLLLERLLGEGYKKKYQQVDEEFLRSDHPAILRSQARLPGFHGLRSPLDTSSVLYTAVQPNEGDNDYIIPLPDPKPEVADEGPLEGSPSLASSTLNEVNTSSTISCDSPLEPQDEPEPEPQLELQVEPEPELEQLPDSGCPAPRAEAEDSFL
# Summary of the method: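 HS27 human fibroblasts pretreated 1 h with compound, then stimulated 10 min with PDGF-BB. Fixed, permeabilized cells immunostained for phospho-PDGFRβ and total ERK and read by two-colour infrared fluorescence, with phospho signal normalized to ERK. IC50 = 50% of control from 4-parameter logistic fit.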
# [2] = target: T2, cFMS (Homo sapiens, UniProt P07333); test: cFMS Cell-Based Assay (Example C); conditions: averaged IC50; phospho-cFMS in THP-1 cells stimulated with 250 ng/mL recombinant human MCSF; read-out: cFMS Cell ELISA IC50
# T2 construct: THP-1 cells (human acute monocytic leukemia cell line) were serum-starved for 4 hours; endogenous in cells; host or cells: THP-1 cells (human acute monocytic leukemia cell line)
# T2 sequence (P07333 20-972): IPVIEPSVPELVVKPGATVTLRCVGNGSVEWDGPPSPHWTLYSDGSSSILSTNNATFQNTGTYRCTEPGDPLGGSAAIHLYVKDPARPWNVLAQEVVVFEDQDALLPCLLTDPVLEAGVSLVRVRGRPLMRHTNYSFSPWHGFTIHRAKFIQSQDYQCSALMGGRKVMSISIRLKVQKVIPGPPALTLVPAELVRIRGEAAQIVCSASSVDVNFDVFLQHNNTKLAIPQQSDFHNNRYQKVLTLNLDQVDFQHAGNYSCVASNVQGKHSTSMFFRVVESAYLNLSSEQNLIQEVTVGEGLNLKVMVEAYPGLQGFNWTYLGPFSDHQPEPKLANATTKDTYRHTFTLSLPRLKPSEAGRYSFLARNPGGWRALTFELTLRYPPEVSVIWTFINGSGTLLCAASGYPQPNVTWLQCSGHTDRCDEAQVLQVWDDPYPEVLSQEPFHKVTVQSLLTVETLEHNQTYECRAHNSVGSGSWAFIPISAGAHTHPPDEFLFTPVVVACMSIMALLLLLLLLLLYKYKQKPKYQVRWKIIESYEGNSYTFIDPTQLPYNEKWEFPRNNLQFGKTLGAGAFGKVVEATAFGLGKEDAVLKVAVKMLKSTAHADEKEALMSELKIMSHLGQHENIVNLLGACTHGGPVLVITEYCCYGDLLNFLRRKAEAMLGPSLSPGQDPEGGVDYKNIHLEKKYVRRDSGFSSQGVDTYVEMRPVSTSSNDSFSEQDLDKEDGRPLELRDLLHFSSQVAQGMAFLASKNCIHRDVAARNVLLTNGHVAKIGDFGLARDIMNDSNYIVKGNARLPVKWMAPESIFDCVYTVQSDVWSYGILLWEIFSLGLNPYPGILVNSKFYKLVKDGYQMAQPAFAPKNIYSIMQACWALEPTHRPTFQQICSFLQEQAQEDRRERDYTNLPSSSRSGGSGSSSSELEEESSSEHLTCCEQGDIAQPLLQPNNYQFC
# Summary of the method: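 THP-1 cells serum-starved 4 h, then treated 1 h with compound (9-point, 3-fold series, top dose typically 5,000 nM) at 37 °C, then stimulated 1 min with 250 ng/mL recombinant human MCSF. Phospho-cFMS in lysates quantified by capture ELISA against a purified phospho-protein standard curve. IC50 at 50 percent of control, 4-parameter logistic fit.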
# [3] = target: T3, c-KIT (Homo sapiens, UniProt P10721); test: c-KIT Cell-Based Assay (Example D); conditions: averaged IC50; phospho-c-KIT in M-07e cells stimulated with 150 ng/ml recombinant human SCF; read-out: cKIT Cell ELISA IC50
# T3 construct: M-07e cells (human acute megakaryoblastic leukemia cell line) were serum-starved for 4 hours; endogenous in cells; host or cells: M-07e cells (human acute megakaryoblastic leukemia cell line)
# T3 sequence (P10721 26-976): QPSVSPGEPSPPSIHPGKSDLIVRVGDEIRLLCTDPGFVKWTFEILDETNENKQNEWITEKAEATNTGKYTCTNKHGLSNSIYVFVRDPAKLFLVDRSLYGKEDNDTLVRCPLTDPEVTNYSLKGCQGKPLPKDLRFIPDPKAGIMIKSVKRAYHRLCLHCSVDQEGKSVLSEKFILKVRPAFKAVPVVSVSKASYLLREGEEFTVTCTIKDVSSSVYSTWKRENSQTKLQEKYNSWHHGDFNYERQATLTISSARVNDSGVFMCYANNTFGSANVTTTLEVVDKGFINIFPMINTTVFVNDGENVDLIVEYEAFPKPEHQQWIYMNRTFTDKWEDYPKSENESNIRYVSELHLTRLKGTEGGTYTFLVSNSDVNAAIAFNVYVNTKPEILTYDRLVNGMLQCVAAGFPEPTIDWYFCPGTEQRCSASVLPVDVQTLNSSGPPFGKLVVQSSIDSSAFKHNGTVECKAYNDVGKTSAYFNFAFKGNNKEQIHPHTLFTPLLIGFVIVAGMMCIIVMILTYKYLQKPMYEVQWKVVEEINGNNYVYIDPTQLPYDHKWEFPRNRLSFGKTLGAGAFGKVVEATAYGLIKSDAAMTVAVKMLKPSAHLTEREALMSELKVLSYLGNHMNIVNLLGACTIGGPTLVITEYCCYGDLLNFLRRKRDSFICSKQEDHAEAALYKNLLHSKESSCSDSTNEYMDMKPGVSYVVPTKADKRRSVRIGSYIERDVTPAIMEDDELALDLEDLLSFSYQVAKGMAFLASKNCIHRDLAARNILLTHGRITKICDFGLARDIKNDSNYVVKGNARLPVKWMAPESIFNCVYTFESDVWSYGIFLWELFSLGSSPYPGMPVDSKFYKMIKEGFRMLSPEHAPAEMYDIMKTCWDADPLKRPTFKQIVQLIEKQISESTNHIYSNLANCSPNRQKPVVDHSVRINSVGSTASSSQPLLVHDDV
# Summary of the method: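 M-07e cells serum-starved 4 h, treated 1 h with compound (9-point, 3-fold dilutions, top dose typically 5,000 nM) at 37° C, then stimulated 4 min with 150 ng/ml SCF. Phospho-c-KIT in lysates quantified by ELISA against a standard curve; IC50 from 4-parameter logistic fit as 50% of control.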
pIC50 [1],pIC50 [2],pIC50 [3],Structure (SMILES)
8.05,7.35,7.43,"COCCOc1ccn2c(C(=O)Nc3cccc4c3cnn4CCc3ccccc3)cnc2c1 [Example 151, 7-(2-methoxyethoxy)-N-(1-phenethyl-1H-indazol-4-yl)imidazo[1,2-a]pyridine-3-carboxamide]"
8.30,7.83,8.02,"CN1CCN(CCOc2ccn3c(C(=O)Nc4cccc5c4cnn5Cc4ccccc4)cnc3c2)CC1 [Example 153, N-(1-benzyl-1H-indazol-4-yl)-7-(2-(4-methylpiperazin-1-yl)ethoxy)imidazo[1,2-a]pyridine-3-carboxamide]"
6.73,6.85,6.82,"N#Cc1ccc2ncc(C(=O)Nc3cccc4c3cnn4Cc3ccccc3)n2c1 [Example 154, N-(1-benzyl-1H-indazol-4-yl)-6-cyanoimidazo[1,2-a]pyridine-3-carboxamide]"
5.62,6.27,5.68,"O=C(Nc1cccc2c1cnn2Cc1ccccc1)c1cnc2ccc(C(O)CO)cn12 (stereo not drawn) [Example 158, N-(1-benzyl-1H-indazol-4-yl)-6-(1,2-dihydroxyethyl)imidazo[1,2-a]pyridine-3-carboxamide]"
7.19,7.58,8.01,"COc1ccc2ncc(C(=O)Nc3cccc4c3cnn4Cc3ccccc3)n2c1 [Example 159, N-(1-benzyl-1H-indazol-4-yl)-6-methoxyimidazo[1,2-a]pyridine-3-carboxamide]"
6.15,6.88,6.06,"NC(=O)c1ccc2ncc(C(=O)Nc3cccc4c3cnn4Cc3ccccc3)n2c1 [Example 160, N3-(1-benzyl-1H-indazol-4-yl)imidazo[1,2-a]pyridine-3,6-dicarboxamide]"

# More lines, now with the values behind:
Structure (SMILES),pIC50 [1],pIC50 [2],pIC50 [3]
"CC(O)c1ccn2c(C(=O)Nc3cccc4c3cnn4Cc3ccccc3)cnc2c1 (stereo not drawn) [Example 147, N-(1-benzyl-1H-indazol-4-yl)-7-(1-hydroxyethyl)imidazo[1,2-a]pyridine-3-carboxamide]",6.40,7.14,7.03
"CC(c1ccn2c(C(=O)Nc3cccc4c3cnn4Cc3ccccc3)cnc2c1)N1CCOCC1 (stereo not drawn) [Example 148, N-(1-benzyl-1H-indazol-4-yl)-7-(1-morpholinoethyl)imidazo[1,2-a]pyridine-3-carboxamide]",6.00,7.03,6.72
"Cc1ncc(Cn2ncc3c(NC(=O)c4cnc5cc(OCCN6CCN(C)CC6)ccn45)cccc32)s1 [Example 149, 7-(2-(4-methylpiperazin-1-yl)ethoxy)-N-(1-((2-methylthiazol-5-yl)methyl)-1H-indazol-4-yl)imidazo[1,2-a]pyridine-3-carboxamide]",9.00,8.66,8.32
"Cc1cccc(Cn2ncc3c(NC(=O)c4cnc5cc(OCCN6CCN(C)CC6)ccn45)cccc32)n1 [Example 150, 7-(2-(4-methylpiperazin-1-yl)ethoxy)-N-(1-((6-methylpyridin-2-yl)methyl)-1H-indazol-4-yl)imidazo[1,2-a]pyridine-3-carboxamide]",8.77,8.34,7.84
"N#Cc1ccn2c(C(=O)Nc3cccc4c3cnn4Cc3ccccc3)cnc2c1 [Example 152, N-(1-benzyl-1H-indazol-4-yl)-7-cyanoimidazo[1,2-a]pyridine-3-carboxamide]",6.53,6.93,6.78
"COCCOc1ccn2c(C(=O)Nc3cccc4c3cnn4Cc3ccccc3)cnc2c1 [Example 156, N-(1-benzyl-1H-indazol-4-yl)-7-(2-methoxyethoxy)imidazo[1,2-a]pyridine-3-carboxamide]",8.24,8.24,7.90
